Columns and labels:
[1] = Dynamic PET scan of [18F]-YJH08, time activity curves; assay type: in vivo, mouse; conditions: two phase exponential decay fit; C57B16/J mice
Description: To understand the biodistribution of [18F]-YJH08 in vivo, a dynamic PET scan over 60 min was first conducted in immunocompetent male C57B16/J mice (FIG. 3A). Prior to injection, the formulated dose of [18F]-YJH08 was passed through a sterile 0.22 μm membrane. Approximately 300 μCi was injected via tail vein in a volume of 100-150 μL per mouse. After a given period of uptake time, the mice were anesthetized with 2-3% isoflurane, and imaged with a Siemens Inveon micro PET/CT. For dynamic acquisitions, the mice were anesthetized prior to injection, and injected while positioned on the scanner bed. All imaging data was decay corrected, reconstructed, and analyzed with AMIDE software. Maximum intensity projections (MIPs) were generated by AMIDE software. Regions of interest (ROI) were manually placed to calculate SUV data from the dynamic acquisitions.
First, the radiotracer rapidly cleared from serum, and fitting the data with a two phase exponential decay curve estimated the fast and slow half-lives to be ˜21 sec and ˜760 sec, respectively. Moreover, liver uptake was prominent at very early time points post injection (0-300 sec), with continuous washout from ˜300-3600 sec.

[2] = Plasma protein binding, rapid equilibrium dialysis, mouse plasma; assay type: in vitro ADME; conditions: mouse, plasma, pH 7.4, mouse plasma
Description: (§1) Plasma Protein Binding Studies. The rapid equilibrium dialysis (RED) device inserts along with a Teflon base plate (Pierce, Rockford, Ill.) were used for the binding studies. The pH of the human or mouse plasma was adjusted to 7.4 prior to the experiment. DMSO stocks (1 mM) were spiked into the plasma to make a final concentration of 2 μM. The spiked plasma solutions (300 μL) were placed into the sample chamber (indicated by the red ring); and 500 μL of PBS buffer, pH 7.4, was placed into the adjacent chamber. The plate was incubated at 37° C. on an orbital shaker (250 rpm) for 4 hours.
(§2) After 4 hours, from the RED plate, aliquots (100 μL) were removed from each side of the insert (plasma and buffer) and dispensed into the 96-well plate. Subsequently, 100 μL of blank plasma was added to the buffer samples and 100 μL of blank buffer was added to all the collected plasma samples. 300 μL of quench solution (50% acetonitrile, 50% methanol, and 0.05% formic acid, warmed up at 37° C.) containing internal standards was added to each well. Plates were sealed, vortexed, and centrifuged at 4° C. for 15 minutes at 4000 rpm. The supernatant was transferred to fresh plates for LC/MS/MS analysis. The sample were analyzed on LC/MS/MS using an AB Sciex API 4000 instrument, coupled to a Shimadzu LC-20AD LC Pump system. Analytical samples were separated using a Waters Atlantis T3 dC18 reverse phase HPLC column (20 mm×2.1 mm) at a flow rate of 0.5 mL/min. The mobile phase consisted of 0.1% formic acid in water (solvent A) and 0.1% formic acid in acetonitrile (solvent B).
(§3) The percentage of test compound bound to protein was calculated by the following equations:
(§4) % Free=(Concentration in buffer chamber/Concentration in plasma chamber)×100%

full length human MR = molecular target: T1, full length human MR (Homo sapiens, UniProt P08235); test: 3H-ligand displacement assay on cells, MR (HEK293 overexpressing MR); assay type: binding
T1 construct: HEK293 transiently overexpressing full length human MR; expressed in transfected cells; host or cells: HEK293
T1 sequence (P08235 1-984): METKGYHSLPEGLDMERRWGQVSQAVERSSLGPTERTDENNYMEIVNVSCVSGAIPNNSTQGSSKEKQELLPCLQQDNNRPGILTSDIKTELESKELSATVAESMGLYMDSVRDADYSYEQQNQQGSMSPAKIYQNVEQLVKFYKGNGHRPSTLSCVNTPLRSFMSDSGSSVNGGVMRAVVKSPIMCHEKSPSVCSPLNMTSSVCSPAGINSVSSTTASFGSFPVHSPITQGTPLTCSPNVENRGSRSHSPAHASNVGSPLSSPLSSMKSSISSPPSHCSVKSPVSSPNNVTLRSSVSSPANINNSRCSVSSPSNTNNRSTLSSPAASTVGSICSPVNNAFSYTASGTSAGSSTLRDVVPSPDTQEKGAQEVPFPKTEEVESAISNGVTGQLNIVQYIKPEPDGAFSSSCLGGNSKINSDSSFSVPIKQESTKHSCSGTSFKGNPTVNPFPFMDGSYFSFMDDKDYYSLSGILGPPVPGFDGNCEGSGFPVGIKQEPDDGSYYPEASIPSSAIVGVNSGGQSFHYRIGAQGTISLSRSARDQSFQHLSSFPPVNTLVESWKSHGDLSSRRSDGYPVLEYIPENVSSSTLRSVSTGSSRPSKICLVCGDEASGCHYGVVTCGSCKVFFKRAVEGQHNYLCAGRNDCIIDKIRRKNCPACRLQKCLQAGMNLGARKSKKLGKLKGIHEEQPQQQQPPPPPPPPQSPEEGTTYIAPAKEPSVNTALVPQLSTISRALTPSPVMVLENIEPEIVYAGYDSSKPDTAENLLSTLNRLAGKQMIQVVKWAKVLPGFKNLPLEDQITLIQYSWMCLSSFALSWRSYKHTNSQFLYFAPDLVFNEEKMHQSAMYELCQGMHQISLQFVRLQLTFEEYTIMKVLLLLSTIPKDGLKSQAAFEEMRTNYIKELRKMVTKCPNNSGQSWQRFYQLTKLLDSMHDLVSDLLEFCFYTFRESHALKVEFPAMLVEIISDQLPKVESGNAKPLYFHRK
Description: The affinity of YJH08 for GR and the other type 1 subfamily 3 nuclear hormone receptors was evaluated using ^3H-ligand displacement assays on cells. The Kd for subfamily 3 class C nuclear hormone receptors was determined on cells by displacing ^3H-steroidal agonists for the respective receptor. […] The Kd was determined using the following cell lines: DU145 (GR), LNCaP-AR (AR), MCF7 (PR, ER), and HEK293 transiently overexpressing full length human MR.
The cold ligands and ^3H-steroids were co-incubated on cells in PBS at room temperature for one hour. Following incubation, the cells were washed twice with ice cold PBS and the unbound activity was retained for analysis. The cells were lysed with 1 mL of 1M NaOH and collected. Bound and unbound fractions were counted in a liquid scintillation counter and expressed as a percentage of the total activity added per equal relative number of cells. […] These experiments were performed at three concentrations of experimental ligand (1 pM, 100 nM and 10 μM), and a linear extrapolation was used to subtract the non-specific component of binding from each treatment condition. The specific binding component was plotted against the log of the competing ligand and curve fit using a non-linear regression algorithm with PRISM software.

plasma protein = test: Plasma protein binding, rapid equilibrium dialysis, human plasma; assay type: in vitro ADME; conditions: plasma (rapid equilibrium dialysis device), pH 7.4, human plasma
Description: as §1, §2, §3, §4

[3] = as above; assay type: in vitro ADME; conditions: human, plasma, pH 7.4, human plasma
Description: as §1, §2, §3, §4

[4] = duplicate, read-out: % Bound (converted)
[5] = read-out: % Bound Average (converted)

COc1cccc2c1-c1ccc3c(c1C(Cc1ccc([18F])cc1)O2)C(C)=CC(C)(C)N3 (racemic) [[18F]-YJH08, [^18F]-5-(4-fluorobenzyl)-10-methoxy-2,2,4-trimethyl-2,5-dihydro-1H-chromeno[3,4-f]quinoline]
serum clearance fast half-life [1]: ~0.35 min
serum clearance slow half-life [1]: ~12.7 min

COc1cccc2c1-c1ccc3c(c1C(Cc1ccc(F)cc1)O2)C(C)=CC(C)(C)N3 (racemic) [YJH08, 5-(4-fluorobenzyl)-10-methoxy-2,2,4-trimethyl-2,5-dihydro-1H-chromeno[3,4-f]quinoline]
fraction unbound at 4 h, 2 μM [2, 4]: < 0.0001
fraction unbound at 4 h, 2 μM [2, 5]: < 0.0001
Kd (full length human MR): 290 nM
recovery at 4 h, 2 μM (plasma protein): 97.6%
fraction unbound at 4 h, 2 μM [3, 4]: < 0.0001
fraction unbound at 4 h, 2 μM [3, 5]: < 0.0001
